The test system of assay [1] is WT αβγ-hENaC, WT δβγ-hENaC or mutant hENaC. As to the kind of experiment: Amiloride block of whole-cell sodium current in transfected HEK-293 cells. The assay is classed as cell-based, human. Particulars: amiloride 10 μM, HEK-293 whole-cell sodium current. As for the experimental part: Concentration-response curves were plotted, and EC50 values and Hill coefficients were determined using Microcal Origin 7.0. […] Finally, amiloride was added to enable estimation of the peptide-induced increase in amiloride-sensitive Na+ current. […] Amiloride was used at 10 μM for WT αβγ-hENaC, WT δβγ-hENaC or mutant hENaC; these concentrations yielded greater than 95% hENaC inhibition. Only cells with clear amiloride response were included in data analysis.

Another assay relates to αβγV543fs-hENaC. The assay is described as follows: Whole cell patch clamp, HEK-293 cells expressing PHA type IB frameshift mutant αβγV543fs-hENaC. The assay is classed as cell-based, human. To be noted: HEK-293, peptide concentration 220 nM, mean ± SE, n = 5; no peptide: loss-of-function; Table 2. As for the experimental part:
The ENaC-activating properties of cyclic peptides are tested electrophysiologically in vitro using whole cell and […] patch clamp techniques Hazemi et al, 2010; Tzotzos et al, 2013; Shabbir et al, 2013). A whole call patch clamp assay is used to measure the induced amiloride-sensitive Na+ current, calculate concentration-response curves and thus estimate the potency measured as effective concentration at half maximum response (EC50), for cyclic peptides.
In addition, mutant delta ENaC subunits were also constructed by site-directed mutagenesis, containing homologous mutations to those observed in conserved positions in the other three ENaC subunits.
Point mutations were introduced into cDNA encoding alpha, beta, gamma and delta ENaC using a commercially available site-directed mutagenesis kit (QuikChange Lightning Site-Directed Mutagenesis Kit; Agilent Technologies). […]
(§1) Whole cell currents were recorded as previously described (Shabbir et al, 2013).
(§2) Data represent the mean ±S.E. unless otherwise stated; experiments were performed on three to seven batches of independently transfected cells in the HEK-293 heterologous expression system. Statistical significance between different groups was determined using an unpaired, two-tailed Student's t test using GraphPad Prism version 3.02 (GraphPad Software, San Diego). […]

Assay [2] concerns PHA type IB mutant loss-of-function hENaC. The assay is described as follows: Whole cell patch clamp, HEK-293 cells expressing PHA type IB mutant hENaCs (overall conclusions). It is filed as cell-based, human. Particulars: whole cell electrophysiological assay, versus absence of peptide. Here is the method: In addition, mutant delta ENaC subunits were also constructed by site-directed mutagenesis, containing homologous mutations to those observed in conserved positions in the other three ENaC subunits. […]
as §1
Concentration-response curves were plotted, and EC50 values and Hill coefficients were determined using Microcal Origin 7.0. […]
After GOhm-seal (GΩ-seal) formation, and an equilibration period of 5 min, sodium current was recorded at Eh from —80 to +80 mV in 20 mV increments held for 1 min at each Eh.
as §2

In a further assay the target is αQ101Kβγ-hENaC (human, UniProt P37088 1-669; P51168 1-640; P51170 1-649). As to the kind of experiment: cell-based or functional assay.
For a further assay, the target named is αβG37Sγ-hENaC (human, UniProt P37088 1-669; P51168 1-640; P51170 1-649). The assay is described as follows: cell-based or functional assay.
Assay [3] concerns the target αβγV543fs-hENaC (human), P37088. The assay is described as follows: cell-based or functional assay.

`N=C(N)NC(=O)c1nc(Cl)c(N)nc1N` [Amiloride, amiloride]: the hENaC inhibition entry in assay [1] is reported as “greater than 95%”. With “Cyclo(4-aminobutanoic acid-GQRETPEGAEAKPWYD) (not fully specified; cyclized via 4-aminobutanoic acid) [AP318]”, in the assay on αβγV543fs-hENaC, the “Inward current measured (amiloride-sensitive current)” value is on record as 177.7 ± 6.5 pA. The “Amiloride-sensitive sodium ion current through PHA-1B mutants in the presence of peptide” value in assay [2] was “significantly increased”.

B1: AP318, Cyclo(4-aminobutanoic acid-GQRETPEGAEAKPWYD) (peptide)
peptide: GQRETPEGAEAKPWYD
modifications: N-terminal 4-aminobutanoic acid (GABA); cyclic: amide bond between the amino group of N-terminal 4-aminobutanoic acid and the side chain carboxyl group of the C-terminal aspartic acid
Take B1: the “Inward amiloride-sensitive current, whole cell patch clamp, HEK-293, peptide concentration 220 nM” value with αQ101Kβγ-hENaC came out at 177 pA; with αβG37Sγ-hENaC, 192 pA.

B2: AP318, Cyclo(4-aminobutanoic acid-…) (peptide)
peptide: GQRETPEGAEAKPWYD
modifications: here or on the partner: N-terminal 4-aminobutanoic acid (GABA); cyclic: amide bond between the amino group of N-terminal 4-aminobutanoic acid and the side chain carboxyl group of the C-terminal aspartic acid
On to B2, for which, in assay [3], the Inward amiloride-sensitive current, whole cell patch clamp, HEK-293, peptide concentration 220 nM turned out to be 178 pA.
